Assay results from patent US12648565B2, “Post-emergence herbicide” (Belvedere Foliar LLC, priority 2017, dated 2026).

Key:
mature field weeds = experiment: Trial 50: field test, visual toxicity scoring; assay type: in vivo
Description: (§1) The majority of greenhouse trials conducted to date have been of one basic design: • 1. Samples of different species of flowering plant and grass are exposed to different formulations of the herbicide in accordance with some embodiments, prepared in a range of concentrations, in combination with potentially suitable adjuvants, and applied as an aquatic spray. Experimental plants are purchased either from a local nursery, grown from ornamental and weed seed packs, or grown from seeds of a custom blend prepared specifically for this project and listed in Table 4B. The experimental variable in a typical test is the molar mass concentration of the nutrient salt being examined. Other factors including pH, nitrogen source, and the amount and composition of surfactant or penetrant are constants within a trial except when one of these factors is itself the variable of interest in the experiment. Experiments are controlled unless irrelevant for a particular test. • 2. Standard techniques to reduce experimental error are employed including use of controls; standard spray application pressures; standardized growing conditions, growing medium, containers, and source irrigation water; and preparation and shipping of samples for laboratory analysis according to required standard laboratory protocols. • 3. Plants are sprayed with the experimental formulation, always in late afternoon (greenhouse tests), or in early morning (field tests), are observed over as many as several weeks, and their visible state of decline scored by the same examiner on a 9 points system relying on visual effects of toxicity. (Table 5.)
(§2) Scores of half-value are also used: 0, 0.5, 1.0, 1.5, 2.0, 2.5, etc. • 4. The estimated successful herbicidal effectiveness of a formulation was determined from a combination of averaged and cumulative scores of 4.0 to 5.0 observed approximately 14 days or longer after application: “All leaves and flowers if present desiccated, browned, wilted, and stems or blades lodged; no green tissue visible; no regrowth from roots visible.”
In Trial 50, the herbicides comprised K-acetate; molarity range from 1.5, 2.0 and 2.5; pH 5.0 with citric acid; proprietary adjuvant mix. Ref. Lab-2, p. […] Test plants were mature field weeds.
S-1 corresponds to the highest concentration of active nutrient tested, S-3 corresponds to the lowest concentration of nutrient tested, and S-2 represent an intermediate level. The data are graphically presented below in FIG. 11.

[1] = tested on: Brassica oleracea (Kale), Dichondra repens, Fragaria x ananassa (Strawberry), Pasture Blend 2, Rosemarina officinalis (Rosemary) (5, 11b, 13, 22, 23b); experiment: Trial 47: greenhouse foliar spray trial, visual toxicity scoring; assay type: in vivo
Description: as §1, §2
In Trial 47, the herbicides comprised K-acetate; molarity range from 1.0-2.5; pH 5.03-5.05 with glacial acetic acid; proprietary adjuvant mix. Ref. Lab-2, p. 42. Test plants (ref Tables 4A and 4B):5, 11b, 13, 22, 23b
S-1 corresponds to the highest concentration of active nutrient tested, S-4 corresponds to the lowest concentration of nutrient tested, and […] represent intermediate levels. The data are graphically presented below in FIG. 8.

[2] = tested on: Pasture Blend 2, Gazania rigens, Fragraria x ananassa (Strawberry), Nemophila menziesii discoidalis (plants 22, 15, 13, 19); experiment: Trial 25: greenhouse foliar spray trial at four acidities, visual toxicity scoring; assay type: in vivo; conditions: molarity 1.5, test conclusion on Day 5
Description: as §1, with “Standard techniques to reduce experimental error are employed including use of controls; standard spray application pressures; standardized growing conditions, growing medium, containers, and source irrigation water; and preparation and shipping of samples for laboratory analysis according to required standard laboratory protocols. • 3.” left out, “(Table 5.)” left out

[3] = tested on: Pasture Blend 2, Allium ampeloprasum (Leek), Brassica oleracea (Kale), Lantana camara, Pisum sativum var. saccharatum (Snow pea) (P2, 1, 5, 16, 23); experiment: Trial 31B: greenhouse foliar spray trial, adjuvant mix B, visual toxicity scoring; assay type: in vivo; conditions: 2.0 M; day 4
Description: (§3) The plants were numbered 22, 1, 5, 16, and 23, corresponding to Pasture blend 2, Brassica oleracea (var. Kale “Dinosaur”), Lantana camara (White Lantana), and Pisum sativum var. saccharatum (Snow pea) (Refer to Tables 4A and 4B for plant species identification). The only difference between Trials 31A and 31B was the composition of the proprietary adjuvant mix employed for each trial. The adjuvants for the “A” series were urea and […] silicone surfactant (Loveland Products). The adjuvants for the “B” series were urea and LI700 penetrant (Loveland Products). Solutions 1 A & B (S-1A, S-1B) correspond to a 2.0 molar solution of potassium acetate, pH 5.01 achieved with citric acid. S-2 is a similar solution of 1.5 molarity, pH 5.00. S-3 is a similar solution of 1.0 molarity, pH 4.97. (Refer to Tables 6A and 6B for trial solutions, details and results).
(§4) The majority of greenhouse trials conducted to date have been of one basic design: • 1. […] Plants are sprayed with the experimental formulation, always in late afternoon (greenhouse tests), or in early morning (field tests), are observed over as many as several weeks, and their visible state of decline scored by the same examiner on a 9 points system relying on visual effects of toxicity. […]

[4] = tested on: Pasture Blend 2, Gazania rigens, Fragaria x ananassa (Strawberry), Nemophila menziesii discoidalis (plants 22, 15, 13, 19); experiment: Trial 22: greenhouse foliar spray trial, visual toxicity scoring; assay type: in vivo
Description: as §1, §2
In Trial 22, the herbicides comprised K-acetate; molarity range 1.0-2.0; pH approx. 5.0 with succinic acid; proprietary adjuvant mix.

[5] = tested on: Pasture Blend 2, Allium ampeloprasum (Leek), Brassica oleracea (Kale), Lantana camara, Pisum sativum var. saccharatum (Snow pea) (P2, 1, 5, 16, 23); experiment: Trial 31A: greenhouse foliar spray trial, adjuvant mix A, visual toxicity scoring; assay type: in vivo; conditions: 1.0M; by Day 20
Description: as §3, §4

[6] = tested on: Viola x wittockiana (Viola), Antirrhinum majus (Snapdragon), Cineraria meritima (Dusty miller), Cymbalaria aequitriloba (Cymbalaria); experiment: Trial 56: greenhouse foliar spray trial, visual toxicity scoring; assay type: in vivo; conditions: for phytotoxic control (in words): 1.5 molarity
Description: as §1, §2

[7] = tested on: all weeds: Common purslane, Barnyard grass, Feather fingergrass; conditions: Day 4
Description: as §1, with “Standard techniques to reduce experimental error are employed including use of controls; standard spray application pressures; standardized growing conditions, growing medium, containers, and source irrigation water; and preparation and shipping of samples for laboratory analysis according to required standard laboratory protocols. • 3.” left out, “(Table 5.)” left out

[8] = tested on: Pasture Blend 1, Pasture blend 2, Cineraria meritima (Dusty miller) (plants 21, 22, 10); experiment: Trial 14: greenhouse foliar spray trial, visual toxicity scoring; assay type: in vivo, pasture seed blend
Description: as §1, §2
In Trial 14, the herbicides comprised K-acetate; molarity 2.0, 1.5, 1.0; pH approx. 5.3 by glacial acetic acid, and a proprietary adjuvant mix. Ref. Lab-1, p. 113. Test plants (ref. Tables 4A and 4B): P1, P2, P10.

Work on `CC(=O)[O-].[K+]` [K-acetate, Potassium acetate] yielded an average toxicity score (mature field weeds; 2.0M, Day 3) of 3.6, an average toxicity score (mature field weeds; 2.0M, Day 10) of 3.6 and an average toxicity score (mature field weeds; 2.5M, Day 3) of 2.8. The average toxicity score (mature field weeds; 2.5M, Day 10) was 2.8, the “phytotoxicity (in words)” value (mature field weeds; 2.5 molarity) was “less phytotoxicity than lower molarities” and the average toxicity score ([1]; 1.0M, second value listed (days not given)) was 4.4. For the same molecule, the average toxicity score ([1]; 1.0M, third value listed (days not given)) was 4.8, the average toxicity score ([1]; 2.5M, Day 5) was 4.5 and the average toxicity score ([1]; 2.5M, Day 9) was 4.8. For the same molecule, the average toxicity score ([1]; 2.5M, Day 14) was 4.9, the average toxicity score ([1]; […] (so in the source), Day 5) was 4.0 and the average toxicity score ([1]; […] (so in the source), Day 9) was 4.8. The average toxicity score ([1]; […] (so in the source), Day 14) was 5.0, the “phytotoxic effect (in words)” value ([2]; pH 4.3) was “severe-to-fatal” and the “phytotoxic effect (in words)” value ([2]; pH 5.0) was “severe-to-fatal”. For the same molecule, the “toxicity level (in words)” value [3] was “severe-to-fatal”, the “phytotoxic results (in words)” value ([4]; 1.0M, Days 3-7) was “strong phytotoxic results” and the average toxicity score ([4]; 2.0M, Day 5) was 4.3. The average toxicity score ([4]; 2.0M, Day 7) was 4.4, the average toxicity score ([4]; […], Day 5) was 4.1 and the average toxicity score ([4]; […], Day 7) was 4.1. The average toxicity score [5] was 4.4, the “appearance of treated plants” value ([6]; 1.5 molar, last observed on Day 16) was “appeared dead with no regrowth” and the “phytotoxic control (in words)” value ([6]; Day 3) was “strong phytotoxic control”. For the same molecule, the “phytotoxic control (in words)” value ([6]; Day 4 through Day 15) was “excellent phytotoxic control”, the “phytotoxic control (in words)” value [7] was “strong to excellent phytotoxic control” and the average toxicity score ([8]; 1.0M, Day 7 (so in the source)) was 4.3. It also gave an average toxicity score ([8]; 1.0M, Day 11) of 4.0, an average toxicity score ([8]; 2.0M, Day 1) of 4.0 and an average toxicity score ([8]; 2.0M, Day 11) of 4.7. For the same molecule, the average toxicity score ([8]; […], Day 1) was 4 and the average toxicity score ([8]; […], Day 11) was 4.8.
